Results: patent EP0107208A1, “1,1,2-Triphenyl-but-1-ene derivatives, process for their preparation and their use as medicines” (Klinge Pharma GmbH, priority 1982, dated 1984)
“And” between values parts separate entries of the source, which are not always exact repeats. Equal entries are not always repeated. Where two headings read alike, the source gives them in different places.

Experiments:
ZR-75-1-Zellen [1] = assay: Inhibition of RNA synthesis in isolated human mammary tumour cells (incorporation of labelled uridine); type: cell-based; conditions: for inhibition at 1 µM / inhibition at 4 µM / inhibition at 0.1 µM: Homo sapiens, ZR-75-1, 48 h; for Prozentuale Hemmung der RNS-Synthese: 2880 min
Text: […] positive [ER +] Mammatumor-Zellen aus Patienten zu isolieren und in vitro kontinuierlich zu […] sog. […] in vivo beobachteten morphologischen […] und […] somit […] zur Testung von Antiestrogenen dar,da direkte Aussagen über den Einfluß auf den in vivo zu […]. […] Der Einfluß der beanspruchten Verbindunger. auf das Wachstum dieser Zellen wurde über den Einbau von […] bzw. Thymidin nach der Methode von Lippman, M. et al kontrolliert. […] Thymidin versetzt und nach einer Stunde die Einbaurate des markierten Materials in den Zellen bestimmt.

Estradiolrezeptor = target: T1, Estradiolrezeptor (Oryctolagus cuniculus, UniProt G1SML6); assay: Binding affinity to the estradiol receptor: displacement of [3H]-estradiol in rabbit uterus cytosol; design: species or system Kaninchen (Neuseeländer); conditions: molar concentration displacing 50% [3H]-Estradiol from the receptor, 18 h at 4° C, 2.5 ×10^-9 M [3H]-Estradiol, read-out: ED50% (the source's name)
T1 construct: Das Uteruscytosol von weiblichen, präpubertären, weißen 2 kg schweren Kaninchen (Neuseeländer); from tissue; host or cells: uterus cytosol of female prepubertal New Zealand white rabbits
T1 sequence (G1SML6 1-598): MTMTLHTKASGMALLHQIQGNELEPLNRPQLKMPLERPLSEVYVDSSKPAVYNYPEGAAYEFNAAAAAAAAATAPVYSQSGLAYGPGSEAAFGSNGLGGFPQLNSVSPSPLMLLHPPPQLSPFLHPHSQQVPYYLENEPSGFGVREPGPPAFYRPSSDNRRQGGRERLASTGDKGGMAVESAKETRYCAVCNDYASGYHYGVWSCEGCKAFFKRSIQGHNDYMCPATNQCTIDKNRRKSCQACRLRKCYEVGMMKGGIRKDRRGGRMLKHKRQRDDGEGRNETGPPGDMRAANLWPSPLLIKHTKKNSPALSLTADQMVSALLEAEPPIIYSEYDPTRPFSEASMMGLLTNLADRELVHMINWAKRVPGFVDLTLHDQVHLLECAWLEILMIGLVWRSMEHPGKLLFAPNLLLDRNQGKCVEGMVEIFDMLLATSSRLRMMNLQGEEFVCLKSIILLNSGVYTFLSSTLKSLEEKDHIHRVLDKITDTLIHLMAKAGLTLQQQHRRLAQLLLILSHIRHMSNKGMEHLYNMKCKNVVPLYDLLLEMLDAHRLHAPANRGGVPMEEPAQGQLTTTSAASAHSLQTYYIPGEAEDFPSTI
Text: Die Messung der Eindungsaffinität zum Estradiolrezeptor erfolgte nach der Eethode von N. Devleeschouwer, G. Leclercq, A. Danguy und J. C. Heuson LEurop. J. Cancer, 14 ,721 - 723 (197o)].
Testsubstanz verschiedener Konzentration inkubiert.Die Bindungsaffinität zum Estradiolrezeptor wird ausgedrückt durch die aen. […] Testsubstanz, welche eine 5C-prcz.

ZR-75-1-Zellen [2] = assay: Inhibition of RNA synthesis in ZR-75-1 cells in the presence of 17-β-estradiol; type: cell-based; conditions: Homo sapiens, compound 1 x 10^-6 [M] + 17-β-Estradiol 1 x 10^-8 [M], 48 h incubation, read-out: Prozentuale Hemmung der RNS-Synthese
Text: Zur […] vivo wurde die Potenz der antiestrogenen Wirkung der beanspruchten Verbindungen in Gegenwart eines Estrogens geprüft. […] Thymidin hinzugefügt und nach einer Stunde die Einbaurate des markierten Materials in gen Zellen bestimmt.[Tab.4]

[3] = read-out: Prozentuale Hemmung der RNS-Synthese

| IC50 (Estradiolrezeptor) | SMILES | inhibition at 1 µM (ZR-75-1-Zellen [1]; read-out: Prozentuale Hemmung der RNS-Synthese, substance concentration 1 x 10^-6[M], 48 h incubation, Tamoxifen run in each experiment) | inhibition at 4 µM (ZR-75-1-Zellen [1]; read-out: Prozentuale Hemmung der RNS-Synthese, substance concentration 4 x 10^-6[M], 48 h incubation, Tamoxifen run in each experiment) | Prozentuale Hemmung der RNS-Synthese (ZR-75-1-Zellen [1]; substance concentration 1 x 10^-6[M], 48 h incubation, Tamoxifen run in each experiment, 1 µM) | Prozentuale Hemmung der RNS-Synthese (ZR-75-1-Zellen [1]; substance concentration 1 x 10^-6[M], 48 h incubation, Tamoxifen run in each experiment, listed as Taxoxifen, 1 µM) | Prozentuale Hemmung der RNS-Synthese (ZR-75-1-Zellen [1]; substance concentration 1 x 10^-7[M], 48 h incubation, Tamoxifen run in each experiment, 0.1 µM) | Prozentuale Hemmung der RNS-Synthese (ZR-75-1-Zellen [1]; substance concentration 1 x 10^-7[M], 48 h incubation, Tamoxifen run in each experiment, 0.1 µM, listed as Taxoxifen) | Prozentuale Hemmung der RNS-Synthese (ZR-75-1-Zellen [1]; substance concentration 4 x 10^-6[M], 48 h incubation, Tamoxifen run in each experiment, 4 µM) | Prozentuale Hemmung der RNS-Synthese (ZR-75-1-Zellen [1]; substance concentration 4 x 10^-6[M], 48 h incubation, Tamoxifen run in each experiment, listed as Taxoxifen, 4 µM) | inhibition at 0.1 µM (ZR-75-1-Zellen [1]; [3]) | inhibition at 1 µM (ZR-75-1-Zellen [1]; [3]) | inhibition at 4 µM (ZR-75-1-Zellen [1]; [3]) | inhibition at 1 µM (ZR-75-1-Zellen [2]) |
| --- | --- | --- | --- | --- | --- | --- | --- | --- | --- | --- | --- | --- | --- |
| – | CC/C(=C(\c1ccccc1)c1ccc(OCCN(C)C)cc1)c1ccccc1 [Tamoxifen, (Z)-1-[4'-(2-Dimetrylaminoethcxy)phenyl]-1,2-diphenyl-but-1-en, reference compound] | 43% | 99% | 44% and 39% and 59% | 46% | 29% and 16% | 2% | 100% | 93% | – | – | – | – |
| 35 nM | CC/C(=C(/c1ccc(OCCN(C)C)cc1)c1cccc(O)c1)c1cccc(C)c1 [Verbindung 1, (E)-1-[4'-(2-Dimethylaminoethoxy)phenyl]-1-(3'-hydroxyphenyl)-2-(3'-methylphenyl)-but-1-en] | – | – | – | – | – | – | – | – | 47% | 74% | 100% | 74% |
| 73 nM | CC/C(=C(/c1ccc(OCCN(C)C)cc1)c1cccc(O)c1)c1ccc(C)cc1 [Verbindung 2] | – | – | – | – | – | – | – | – | 42% | 62% | 100% | 58% |
| 28 nM | CC/C(=C(/c1ccc(OCCN(C)C)cc1)c1cccc(O)c1)c1ccc(OC)cc1 [Verbindung 3, (E)-1-[4'-(2-Dimethylaminoethoxy)phenyl]-1-(3'-hydroxyphenyl)-2-(4'-methoxyphenyl)-but-1-en] | – | – | – | – | – | – | – | – | 36% | 68% | 100% | 65% |
| – | CC/C(=C(/c1ccc(OCCN(C)C)cc1)c1cccc(O)c1)c1cccc(O)c1 [Verbindung 4, (E)-1-[4'-(2-Dimethylaminoethoxy)phenyl]-1,2-bis-(3'-hydroxyphenyl)-but-1-en] | – | – | – | – | – | – | – | – | 33% | 73% | 100% | 79% |
| 85 nM | CC/C(=C(/c1ccc(OCCN(C)C)cc1)c1cccc(O)c1)c1ccc(Cl)cc1 [Verbindung 5] | – | – | – | – | – | – | – | – | 41% | 61% | 100% | – |
| – | CC/C(=C(/c1ccc(OCCN(C)C)cc1)c1cccc(O)c1)c1ccc(Br)cc1 [Verbindung 6, (E)-2-(4'-Bromphenyl)-1-[4'-(2-dimethylaminoethoxy)phenyl]-1-(3'-hydroxyphenyl)-but-l-en] | – | – | – | – | – | – | – | – | 47% | 70% | 100% | 74% |
| – | CC/C(=C(/c1ccc(OCCN(CC)CC)cc1)c1cccc(O)c1)c1ccc(OC)cc1 [Verbindung 7, (E)-1-[4'-(2-Diethylaminoethoxy)phenyl]-1-(3'-hydroxyphenyl)-2-(4'methoxyphenyl)-but-l-en] | – | – | – | – | – | – | – | – | 4% | 37% | 91% | 41% |
